The text below walks through data of publication PMC6382862 (Scientific Reports, 2019).

The test system of assay [1] is LDLR protein level on HepG2 cell surface. Briefly: In cell western (ICW) assay of LDLR protein level on HepG2 cell surface in presence of PCSK9. The assay is classed as cell-based, human. As to conditions: PCSK9 alone decreased LDLR by 37.62%, mean of three independent experiments. On the procedure:
This reliable technique was used to investigate the effects of the mutated peptides on the modulation of the LDLR protein levels localized on the HepG2 cell surface. Taking this into consideration, to evaluate only the LDLR surface levels no permeabilization step was included in the applied procedure.
(§1) The HepG2 cell line was cultured in DMEM high glucose with stable L-glutamine supplemented with 10% FBS, 100 U/mL penicillin, 100.0 µg/mL streptomycin and incubated at 37 °C under 5% CO2 atmosphere. HepG2 cells were used for no more than 20 passages after thawing, because the increase of the number of passages may change the cell characteristics and impair assay results.
A total of 3.0 × 10^4 HepG2 cells/well were seeded in 96-well plates, respectively. The following day, cells were washed with PBS and then starved overnight (O/N) in DMEM without FBS.
Treated HepG2 cells were fixed in 4% paraformaldehyde for 20 min at room temperature (RT). Cells were washed 5 times with 100.0 µL of PBS/well (each wash was for 5 min at RT) and the endogenous peroxides activity was quenched adding 3% H2O2 in PBS for 20 min at RT. Non-specific sites were blocked with 100.0 µL/well of 5% BSA in PBS for 1.5 h at RT. LDLR primary antibody solution (1:3000 in 5% BSA in PBS, 25 µL/well) was incubated O/N at 4 °C. Subsequently, the primary antibody solution was discarded and each sample was washed 5 times with 100.0 µL/well of PBS (each wash was for 5 min at RT). Goat anti-rabbit Ig-HRP secondary antibody solution (1:6000 in 5% BSA in PBS, 50.0 µL/well) was added and incubated for 1 h at RT. The secondary antibody solution was washed 5 times with 100.0 µL/well of PBS (each wash for 5 min at RT). Freshly prepared TMB substrate (100.0 µL/well), was added and the plate was incubated at room temperature (RT) until desired color was developed. The reaction was then stopped with 2 M H2SO4 and the absorbance at 450 nm was measured using the Synergy H1 fluorescent plate reader from Biotek. Cells were stained by adding 1 × Janus green stain, incubating for 5 min at RT. The dye was removed and the sample washed 5 times with water. Afterward 0.1 mL 0.5 M HCl per well were added and incubated for 10 min. After 10 sec shaking, the OD at 595 nm was measured using the Synergy H1 fluorescent plate reader from Biotek.

The target of assay [2] is T1, PCSK9/LDLR PPI (His-tagged PCSK9, recombinant LDLR-AB domain) (Homo sapiens, UniProt Q8NBP7).
T1 construct: purchased CycLex Co., Nagano, Japan
T1 sequence (Q8NBP7 153-692): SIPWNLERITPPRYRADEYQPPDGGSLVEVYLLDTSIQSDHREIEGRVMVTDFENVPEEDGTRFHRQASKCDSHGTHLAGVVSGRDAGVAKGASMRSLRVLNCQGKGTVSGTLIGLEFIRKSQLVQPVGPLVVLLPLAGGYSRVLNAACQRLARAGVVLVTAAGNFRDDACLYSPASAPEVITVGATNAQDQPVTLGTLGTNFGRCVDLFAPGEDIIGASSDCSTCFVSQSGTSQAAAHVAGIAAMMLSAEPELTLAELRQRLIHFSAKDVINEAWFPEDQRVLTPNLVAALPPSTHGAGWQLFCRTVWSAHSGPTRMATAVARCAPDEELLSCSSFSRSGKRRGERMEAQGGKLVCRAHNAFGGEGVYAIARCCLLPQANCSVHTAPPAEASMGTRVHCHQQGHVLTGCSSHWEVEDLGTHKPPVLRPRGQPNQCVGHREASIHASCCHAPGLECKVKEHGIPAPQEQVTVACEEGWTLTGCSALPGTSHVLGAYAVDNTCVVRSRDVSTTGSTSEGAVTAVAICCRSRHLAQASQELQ
T1 sequence (Q8NBP7 31-152 partner limits assumed): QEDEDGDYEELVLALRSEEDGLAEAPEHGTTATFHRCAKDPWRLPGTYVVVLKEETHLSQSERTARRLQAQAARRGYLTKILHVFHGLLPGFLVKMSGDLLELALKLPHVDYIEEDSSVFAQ
As to the kind of experiment: In vitro PCSK9-LDLR binding assay (CycLex). As to conditions: peptide 100 µM; absorbance 450 nm; three independent experiments in duplicate.
Description: Biochemical experiments, based on a PCSK9-LDLR binding assay, were performed in order to compare the ability of each derivative to impair the PPI between PCSK9 and LDLR. […] Initially, in agreement with recently published conditions[27], a preliminary screening was performed at the fixed concentration of 100 µM.
The absorbance at 450 nm was measured using the Synergy H1 fluorescent plate reader (Biotek, Bad Friedrichshall, Germany).

The test system of another assay is HepG2 cells. Briefly: Fluorescent LDL uptake cell based assay in PCSK9-treated HepG2 cells. Also noted: species or system human. As to conditions: for Times more active than Pep2-8 in restoring LDL uptake: compared with 50 µM Pep2-8; for LDL-uptake restored (versus untreated cells): then LDL-DyLight 550 2 h, PCSK9 alone reduced uptake by 32.7%, mean of three independent experiments. Here is the method:
as §1
HepG2 cells (3.0 × 10^4/well) were seeded in black 96-well plates and kept in complete growth medium for 2 d before treatment. The third day, they were treated with 4.0 μg/mL PCSK9 and 4.0 μg/mL PCSK9 + peptides (0.5-50.0 µM), and vehicle (H2O) for 2 h with at 37 °C under 5% CO2 atmosphere. At the end of the treatments, the culture medium was replaced with 50.0 μl/well LDL-DyLight™ 550 working solution (Cayman Chemical Company, Ann Arbor, MI, US). The cells were additionally incubated for 2 h at 37 °C and then the culture medium was aspirated and replaced with PBS (100.0 μl/well). The degree of LDL uptake was measured using the Synergy H1 fluorescent plate reader from Biotek (excitation and emission wavelengths 540 and 570 nm, respectively).

In another assay the test system is PCSK9/LDLR PPI. As to conditions: read-out: IC50 of PCSK9/LDLR PPI inhibition; cited from earlier work. The text has this:
Recently, innovative technological solutions for controlling peptide metabolism and advanced administration strategies[14]–[16] have renewed the interest for novel inhibitory peptides. […] Another study, carried out by us, has identified two peptides able to inhibit the PCSK9/LDLR PPI[11]: they derive from the hydrolysis of lupin protein and have the following sequences, […] (P5) and […] (T9).

The test system of assay [3] is cell surface LDLR, HepG2 cells. As to conditions: cited from earlier work. On the procedure: It is useful to underline, that in our case the cells were treated with a lower PCSK9 concentration (4 μg/mL) and for a shorter time (2 h) in respect to the conditions applied by Zhang and co-w ... || In a recent study, Zhang and co-workers[18] have developed new antagonists. […] In particular, in presence of PCSK9, Fusion 1 peptid ...

In a further assay the test system is PCSK9. Also noted: method as in PMID 28825733. As to conditions: lower affinity than Pep2-8, still detectable by SPR; cited from earlier work.
Assay [4] deals with T2, recombinant His-tagged PCSK9 protein (proprotein convertase subtilisin/kexin type 9) (UniProt Q8NBP7 31-692).
T2 construct: Proprotein convertase subtilisin/kexin type 9 (PCSK9), recombinant, of the CycLex kit; the functional rows use this molecule; also called PCSK9-WT
T2 sequence (Q8NBP7 31-692): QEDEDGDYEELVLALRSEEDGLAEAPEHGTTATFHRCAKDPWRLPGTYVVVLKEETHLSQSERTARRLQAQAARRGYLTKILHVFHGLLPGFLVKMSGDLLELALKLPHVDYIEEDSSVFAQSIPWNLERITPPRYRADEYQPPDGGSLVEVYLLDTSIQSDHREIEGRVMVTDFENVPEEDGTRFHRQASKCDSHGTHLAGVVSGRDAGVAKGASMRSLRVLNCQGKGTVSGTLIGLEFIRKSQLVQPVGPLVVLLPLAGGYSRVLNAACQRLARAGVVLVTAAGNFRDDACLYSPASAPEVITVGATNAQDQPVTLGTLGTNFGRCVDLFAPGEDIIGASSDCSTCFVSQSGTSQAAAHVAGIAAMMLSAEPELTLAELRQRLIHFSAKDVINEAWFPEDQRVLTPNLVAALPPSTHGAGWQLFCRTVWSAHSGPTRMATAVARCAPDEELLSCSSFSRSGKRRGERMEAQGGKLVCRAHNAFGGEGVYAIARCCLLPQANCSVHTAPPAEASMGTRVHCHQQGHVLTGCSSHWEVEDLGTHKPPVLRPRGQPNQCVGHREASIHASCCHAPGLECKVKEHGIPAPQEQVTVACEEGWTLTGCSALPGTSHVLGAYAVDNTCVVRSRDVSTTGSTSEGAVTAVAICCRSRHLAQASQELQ
As to the kind of experiment: ELISA; CycLex in vitro PCSK9-LDLR binding assay (colorimetric semi-quantitative solid phase binding assay); wells coated with recombinant LDLR-AB domain; His-tagged PCSK9 added with peptide (1.0-300.0 uM; first screen at 100 uM); bound His-tagged PCSK9 read as absorbance at 450 nm; competition. As to conditions: both partners purified.

The mark [5] stands for this setting: peptide 0.5 µM + 4 µg/mL PCSK9, 2 h.
[6] abbreviates: peptide 1 µM + 4 µg/mL PCSK9, 2 h.
Setting [7] is: peptide 0.5 µM + 4.0 µg/mL PCSK9, 2 h.
Where [8] appears, read: peptide 1.0 µM + 4.0 µg/mL PCSK9, 2 h.

Where “and” joins values, the source holds several entries; their conditions need not be identical. Identical values can stand only once.

Regarding Ac-TVFTSWEEALDWV-NH2 [[Y9A]Pep2-8], the “LDLR protein level restored (versus control cells)” value in assay [1] (setting [5]) is 81.9%; in assay [1] (setting [6]) it was 89.9%. In assay [2], the “Impairment of PCSK9-LDLR binding versus control” value is listed as −69.8%. Also, the “Times more active than Pep2-8 in restoring LDL uptake” value in the assay with HepG2 cells is “about 50 fold”. For the same molecule, the “LDL-uptake restored (versus untreated cells)” value came to 83.4% with HepG2 cells (setting [7]) and 99.0% with HepG2 cells (setting [8]).
For the molecule LILPKHSDAD [Peptide P5], in the assay on PCSK9/LDLR PPI, the IC50 is 1.6 µM.
“Ac-TVFTSWEEYLDWV-NH 2 [Pep2-8, reference compound]”: the “Surface LDLR levels renewed” value in assay [3] (FACS, 50 μM peptide, 4 h co-incubation with 15 μg/mL PCSK9, ref Zhang and co-workers) was “about 70%”. In addition, the “LDLR protein level restored (versus control cells)” value in assay [1] (peptide 50 µM + 4 µg/mL PCSK9, 2 h) was 83.36% and 83.4%. Moreover, the “LDL-uptake restored (versus untreated cells)” value in the assay with HepG2 cells (peptide 50 µM + 4.0 µg/mL PCSK9, 2 h) was 98.9%.
In the case of Ac-TVFRSWEEYLDYV-NH2 [[T4R,W12Y]Pep2-8], the “LDLR protein level restored (versus control cells)” value in assay [1] (setting [5]) stood at 68.1%; in assay [1] (setting [6]), 75.3%; in assay [1] (peptide 10.0 µM + 4 µg/mL PCSK9, 2 h), 88.3%. In addition, the “Impairment of PCSK9-LDLR binding versus control” value in assay [2] is recorded as −93.0%. In addition, the “Times more active than Pep2-8 in restoring LDL uptake” value with HepG2 cells was ~5 fold. For the same molecule, the “LDL-uptake restored (versus untreated cells)” value in the assay with HepG2 cells (setting [7]) was 81.6%; in the assay on HepG2 cells (setting [8]), 88.0%; in the assay with HepG2 cells (peptide 10.0 µM + 4.0 µg/mL PCSK9, 2 h), 92.5%.
“Ac-TAFTSWEEYLDWV-NH2 [[V2A]Pep2-8, alanine single-point mutant of Pep2-8, computational only]”: the “Affinity on PCSK9” value in the assay on PCSK9 is “low affinity”.
On to “TVFTSWEEYLDWV-GSC- CRLPWNLQRIGLPG [Fusion 1 peptide]”, for which the “LDLR restored in presence of PCSK9” value in assay [3] (HepG2 cells, 5.0 µM (tested 0.1 to 5.0 µM)) was 90%. For the same molecule, the “Fold more potent than reference peptide Pep2-8 in preventing PCSK9-mediated cell surface LDLR degradation” value in assay [3] (HepG2 cells) was “about 20 fold”.

B1: [Y9A]Pep2-8 (Ac-TVFTSWEEALDWV-NH2) (peptide)
peptide: Ac-TVFTSWEEALDWV-NH2
notes: analog of Pep2-8 with Y9A, designed by computation; source: synthetic peptide (bought: PRIMM Biotech / GenScript, >95% purity)
For B1, in assay [4], the IC50 came to 27.1 µM and the “percent change of PCSK9-LDLR binding at 100 µM peptide versus the control” value is -69.8%.

B2: [T4R,W12Y]Pep2-8 (Ac-TVFRSWEEYLDYV-NH2) (peptide)
peptide: Ac-TVFRSWEEYLDYV-NH2
notes: analog of Pep2-8 with T4R and W12Y, designed by computation; source: synthetic peptide (bought: PRIMM Biotech / GenScript, >95% purity)
On to B2, for which, in assay [4], the IC50 is 14.5 µM and the “percent change of PCSK9-LDLR binding at 100 µM peptide versus the control” value is -93%.
